The values below come from a melting point compilation (Tetko et al.).

Each structure is given as a SMILES string.

Turning to `COc1ccc(C(C)=O)c(OCc2ccccc2)c1`, the melting point fell in the range of 59 to 61 °C.

For `Nc1ccnc(OCC(F)(F)F)c1`, the melting point is 39 to 41 °C. The value for `CC(C)(C)OC(=O)N1CCC(Oc2ccccc2)(C(=O)O)CC1` was 103 to 105 °C; that for `NC1(CO)CCc2ccccc21` (stereo not drawn) was 100 to 102 °C; that for `CN(CC12CC3CC(CC(C3)C1)C2)C(=O)CCl` was 52 to 54 °C. The value for `Cc1nc2c(c(C)c1CC(=O)O)c(=O)[nH]n2C` was 239 to 241 °C; that for `NNC(=O)Nc1c(Cl)cc(Cl)cc1Cl` was 229 to 231 °C; that for `CS(=O)(=O)Cc1c(N)cccc1F` was 129 to 131 °C. The value for `COCc1cccc(C(=O)O)c1` was 64 to 66 °C; that for `CC(C)(NC(=O)NCc1cccc(Br)c1)C(=O)O` was 159 to 161 °C. As to `Nc1nc(CN2CCN(c3ccc(F)cc3)CC2)cs1`, the melting point lay in the range of 194 to 196 °C. The value for `Cc1ccc(-n2nc(C(=O)O)cc2C)cc1` was 149 to 151 °C; that for `O=C(CCl)NCc1cn(Cc2ccccc2)nc1-c1ccccc1` was 82 to 84 °C. The value for `Cc1nc(Br)ccc1C(=O)O` was 155 to 157 °C; that for `Cc1ccc2c(C)cc(=O)[nH]c2c1` was 209 to 211 °C.

For `O=C(O)CCCCc1ccc(Cl)cc1`, the melting point is 64 to 66 °C. The value for `CC(C)(C)NS(=O)(=O)CC(=O)O` was 93 to 95 °C; that for `CC(C)c1ccc(-c2noc(CCl)n2)cc1` was 50 to 52 °C; that for `COC(=O)c1ccn2cncc2c1` was 93 to 95 °C.

Compound `N#CSCC(=O)c1ccccc1C(F)(F)F` gave a melting point of 49 to 51 °C.

As to `Cc1ccc(F)c(-n2nnnc2CCl)c1`, the melting point is 51 to 53 °C. The value for `NC(=O)c1ncc(Br)cc1Br` was 187 to 189 °C. The value for `Cc1cc(C(=O)CCl)c(C)cc1Br` was 79 to 81 °C; that for `Cn1ccnc1-c1noc(N)n1` was 197 to 199 °C; that for `Cc1nc(C(C)(C)C)nc(Cl)c1C` was 36 to 38 °C. The value for `COC(=O)c1cc(C(=O)O)ccn1` was 233 to 235 °C; that for `O=Cc1ccn(-c2ccccc2)n1` was 49 to 51 °C; that for `O=C(O)C1CCCN(C(=O)c2ccccn2)C1` (stereo not drawn) was 167 to 169 °C. `NS(=O)(=O)CCSc1ccccc1` gave a melting point of 106 to 108 °C. The value for `CC1CNc2ccccc2NC1` was 82 to 84 °C. In the case of `CCCc1c(C(=O)O)cnn1C1CCCC1`, the melting point fell in the range of 113 to 115 °C. As for `Cc1c[nH]c(=O)n1-c1ccccc1`, the melting point is 210 to 212 °C.

For the compound `O=[N+]([O-])c1ccc(S(=O)(=O)Cl)c(C(F)(F)F)c1`, the melting point fell in the range of 78 to 80 °C.

Consider `O=C(O)c1ncn(-c2ccccc2)n1`, for which the melting point fell in the range of 179 to 181 °C. The value for `Cc1cc(C(=O)CCl)c(C)n1-c1ccc(Cl)c(C(F)(F)F)c1` was 139 to 141 °C.

Consider `Sc1ccc2ccccc2n1`, for which the melting point lay in the range of 173 to 176 °C. The value for `O=C(O)C1CCCN1C(=O)C1CCCCC1` (stereo not drawn) was 135 to 137 °C; that for `Clc1ccc2oc(C3CCNCC3)nc2c1` was 86 to 88 °C. `O=C1CCc2cc(Cl)c(S(=O)(=O)Cl)cc2N1` returned a melting point of 207 to 209 °C.

`NCc1nnc(-c2cccc(Br)c2)o1` yielded a melting point of 98 to 100 °C. The value for `O=C(O)c1cc(S(=O)(=O)Cl)cc(F)c1F` was 111 to 113 °C.

In the case of `CC(C)c1c(C(=O)O)nnn1-c1ccc(F)cc1`, the melting point lay in the range of 146 to 148 °C.

As to `ClCc1csc(-c2ccco2)n1`, the melting point was in the range of 76 to 78 °C.

In turn, `N#Cc1c(CCCN)n[nH]c1N` gave a melting point of 169 to 171 °C. The value for `COC(=O)c1cc([N+](=O)[O-])cnc1C` was 58 to 60 °C; that for `c1ccc(C2COCCN2)cc1` (stereo not drawn) was 74 to 76 °C; that for `Nc1ccccc1NS(=O)(=O)c1ccc(F)cc1` was 122 to 124 °C. The value for `COc1ccc2c(c1)c(C(=O)O)c(C)n2C1CCCCC1` was 137 to 139 °C; that for `CC(=O)Nc1ccccc1CC(=O)O` was 144 to 146 °C; that for `NC(=O)Cc1nc2ccccc2s1` was 167 to 169 °C. The value for `COc1cccc2c1OCC(C(=O)O)C2` (stereo not drawn) was 174 to 176 °C; that for `Cc1cccc(C#N)n1` was 70 to 72 °C. `NC(=O)c1cccc(C=O)c1` gave a melting point of 108 to 110 °C. The value for `O=c1[nH]c(CCl)nc2scc(-c3ccco3)c12` was 230 to 232 °C; that for `CCCCCCOc1ccc(CC(=O)O)cc1` was 79 to 81 °C; that for `O=C(O)CCCN1C(=O)CCC1=O` was 102 to 104 °C.

Consider `Nc1nc2nc(-c3cccs3)cc(C(F)(F)F)c2s1`, for which the melting point lay within 243 to 245 °C.

In turn, `Cc1nc(Cl)c2cc[nH]c2n1` returned a melting point of 199 to 201 °C.

In the case of `O=C(O)C1CCCN1c1ncnc2sccc12` (stereo not drawn), the melting point lay within 211 to 213 °C. The value for `CCOc1ccc(C(C)=O)cc1CN1CCCCC1` was 33 to 37 °C; that for `C=CCc1cc(OCC)ccc1O` was 135 to 137 °C. For the compound `CC(NS(=O)(=O)c1ccc(Cl)cc1)C(=O)O` (stereo not drawn), the melting point fell in the range of 136 to 138 °C.

`Nc1cccc(C(=O)NCc2ccccn2)c1` showed a melting point of 119 to 121 °C. Take `O=C(O)c1occc1-c1ccc(F)cc1`: the melting point is 147 to 149 °C. The value for `Cc1ccc2c(C(=O)CC#N)c[nH]c2c1` was 268 to 270 °C; that for `Cc1c(C(=O)O)cnn1C1CCOCC1` was 207 to 209 °C; that for `Cc1cc(Cl)c2cccc([N+](=O)[O-])c2n1` was 109 to 111 °C. With `CCc1nnc(CO)n1C`, the melting point lay within 41 to 43 °C.

On to `Cc1nc(C(=O)O)nn1-c1ccccc1Cl`, for which the melting point lay within 189 to 191 °C. For the compound `Nc1ccc2nc(C3CC3)oc2c1`, the melting point is 99 to 101 °C. The value for `Cc1cc(Cl)nc(-c2cccnc2)n1` was 70 to 72 °C; that for `O=C1Nc2ccc(-c3ccccc3)cc2C1=O` was 214 to 216 °C; that for `NC(=O)C1Cc2[nH]cnc2CN1` (stereo not drawn) was 249 to 251 °C. The value for `O=C(O)c1cccc(S(=O)(=O)N2CCCC2)c1` was 157 to 159 °C; that for `Nc1ccc(S)c(Br)c1` was 94 to 96 °C; that for `CCOC(=O)c1cc2c(nc1N)CCN(C)C2` was 146 to 148 °C. The value for `Cc1ccccc1-c1nonc1N` was 88 to 90 °C; that for `CC(Cl)c1nnc(-c2ccc(Cl)cc2Cl)o1` (stereo not drawn) was 55 to 57 °C; that for `Sc1nnc(NCCc2ccccc2)s1` was 143 to 145 °C. The compound `CC(C)c1ccc(C=NO)cc1` displayed a melting point of 64 to 66 °C. The value for `CCOc1ccc(-c2nc(N)sc2C)cc1` was 98 to 100 °C; that for `O=C(O)c1c[nH]c2cc(Cl)ccc12` was 219 to 221 °C. The value for `CC(C)CC(=O)Cc1ccc(Cl)cc1Cl` was 28 to 30 °C; that for `COc1ccc(C(=O)O)cc1S(N)(=O)=O` was 283 to 285 °C. `O=C(c1c[nH]c(=O)[nH]1)N1CCNCC1`: the melting point is 269 to 271 °C. Compound `O=C(O)c1cnc(-c2ccc(Cl)s2)s1` had a melting point of 235 to 237 °C. The value for `O=C1NC(=O)N(CCC2=CCCCC2)C1=O` was 127 to 129 °C; that for `O=C(O)/C=C/c1cc(Cl)c2c(c1)OCCO2` was 261 to 263 °C. The value for `NNC(=O)CCOc1ccccc1` was 69 to 71 °C. The value for `O=C1NC(=O)c2cnccc21` was 233 to 235 °C; that for `O=C1C=CC(=O)N1CCc1ccc(F)cc1` was 79 to 81 °C. Regarding `NC(=O)CCNCc1ccccc1`, the melting point was in the range of 164 to 166 °C. The value for `CCOC(=O)c1cc(CC)sc1NC(=O)CCl` was 74 to 76 °C; that for `CC(=O)N1CCN(C(=O)CCl)CC1` was 89 to 91 °C; that for `CC(Br)c1ccc2ccccc2c1` (stereo not drawn) was 62 to 64 °C.

For the compound `Cc1nc(C)n(Cc2cccc(N)c2)n1`, the melting point lay within 109 to 111 °C. The value for `CN(CC(=O)O)C(=O)Nc1cccc2ccccc12` was 126 to 128 °C; that for `Cc1ccc([N+](=O)[O-])c(OCCC(=O)O)c1` was 134 to 136 °C. `Cc1[nH]nc2ncc(C(=O)O)cc12`: the melting point fell in the range of 337 to 339 °C. `Cc1ncsc1-c1cnco1`: the melting point is 96 to 98 °C. The value for `NCCCN1CCN(c2ncccn2)CC1` was 72 to 74 °C; that for `CN1CCC(n2nccc2N)CC1` was 98 to 100 °C; that for `Cc1ccc(C)c(OCc2nnc(S)o2)c1` was 135 to 137 °C. The value for `O=C1CS/C(=C/C(=O)C2CC2)N1` was 188 to 190 °C; that for `CCCn1c(N)nc2ccccc21` was 114 to 116 °C. The value for `c1ccc(COc2cccc3[nH]ncc23)cc1` was 125 to 127 °C; that for `O=C1C2C3CC4C5C3C1C5C1(OCCO1)C42` (stereo not drawn) was 73 to 75 °C. `O=C(O)c1cc(Cl)c2cc(Cl)ccc2n1` came in with a melting point of 194 to 196 °C. The value for `COC(=O)Cn1nc2ccc(Cl)nn2c1=O` was 158 to 160 °C; that for `CC(C)c1nn(C2CCS(=O)(=O)C2)cc1C(=O)O` (stereo not drawn) was 202 to 204 °C; that for `O=C(O)Cn1c(SC(F)F)nc2ccccc21` was 188 to 203 °C. The value for `Nc1ccc2c(c1)NC(=O)CS2` was 218 to 222 °C; that for `O=C1NS(=O)(=O)c2ncccc21` was 199 to 201 °C. The value for `Cn1cnc([N+](=O)[O-])c1Br` was 177 to 179 °C; that for `O=C(O)CSc1cnc2ccccc2n1` was 178 to 180 °C; that for `O=C(CCl)NCc1cccc(C(=O)NC2CC2)c1` was 137 to 139 °C. With `O=c1[nH]c(-c2ccccc2Cl)cs1`, the melting point was 182 to 184 °C. The value for `Cc1oc2nc[nH]c(=O)c2c1C(=O)O` was 149 to 151 °C; that for `NC(=O)C1(N2CCNCC2)CCCC1` was 138 to 140 °C. `CC(C)c1ccc(C(=O)CC#N)cc1`: the melting point is 91 to 93 °C. The value for `c1cnc(N2CCNCC2)cn1` was 48 to 50 °C.

In turn, `COc1ccc(COc2cccc(F)c2)cc1N` yielded a melting point of 57 to 59 °C. Turning to `CC(C)(C)n1cc(C#N)cc1N`, the melting point is 105 to 107 °C.
